# Measured values: patent US12281304B2, “Compositions and methods for treating and preventing muscular disorders and dystrophies, steroid side effects, and inflammation” (Children's National Medical Center, priority 2018, dated 2025)
# System: miRNAs in diaphragm muscle of mdx mice
# Experiment: TaqMan low-density array (TLDA) miRNA profiling of diaphragm, discovery set (prophylactic mdx trial)
# Type: in vivo, mouse
# Conditions: mdx diaphragm, vs untreated mdx; Pred 5 mg/kg, Vam 15 mg/kg
# Excerpt: Archival muscle samples (diaphragm) from two separate preclinical studies were obtained, with each trial showing a significant benefit from both prednisolone and vamorolone drug treatments (23). Prednisolone was used because it is the active form of prednisone, the current DMD standard of care. The first, “discovery set” of diaphragm muscles was from a prophylactic trial design where 2-week old (postnatal day 15) mdx or wild type control mice received oral dosing for 6 weeks with vehicle (cherry syrup), prednisolone (5 mg/kg), or vamorolone (15 mg/kg) as previously reported (23). The second, “validation set” of diaphragm muscles was from an extended trial in older mice where mdx or wild type mice were subjected to treadmill running to unmask mild phenotypes. Mice in this validation set were treated with either vehicle, prednisolone (5 mg/kg) or vamorolone (45 mg/kg) for four months beginning at two months of age (23). At the endpoint of each trial, diaphragm muscles were harvested and frozen in liquid nitrogen-cooled isopentane.
# We extracted total RNA from 5 diaphragm muscles per treatment group in the discovery set of samples from 8-week old mice. RNA was extracted using a modified TRIzol protocol with isopropanol precipitation at −20° C. overnight. This RNA was reverse transcribed to cDNA using a High Capacity cDNA Reverse Transcription Kit with RNase Inhibitor (ThermoFisher; Carlsbad, Calif.), with miRNA-specific Megaplex RT Primers, Rodent Pools Set version 3.0 (ThermoFisher; Carlsbad, Calif.). Levels of each of the miRNAs were profiled in the discovery set using TAQMAN Array Rodent MiRNA A+B Cards Set v3.0 (ThermoFisher; Carlsbad, Calif.).
# In the discovery set experiments, levels of each miRNA were quantified in TaqMan low-density arrays using ThermoFisher Cloud software with the Relative Quantification Application (ThermoFisher; Carlsbad, Calif.) tool. Data was analyzed by ANOVA with post-hoc comparison of each group to the mdx vehicle-treated group. […] A P-value of P≤0.05 was set as the significance threshold, without adjustment for multiple comparisons. To reduce false-positive discovery in this setting, an evidence-based approach was used to identify efficacy associated miRNAs where 1) results from the multiple groups were cross-referenced, and 2) all candidate miRNAs identified in this discovery set were then assayed in a separate validation set of mice. For the validation set experiments, levels of each individual miRNA were assayed in samples from a second, independent preclinical trial in adult mdx mice. Data from individual TaqMan Assays was quantified using QuantStudio Real-Time PCR version 1.3 software (Applied Biosystems; Foster City, Calif.). The levels of all miRNAs were normalized to the geometric mean of multiple control genes (60, 70). Comparison of groups was made by ANOVA with Holm-Sidak post-hoc test comparing each group to mdx vehicle.
# To visualize behavior of miRNAs within individual mice for each group, heat map images were generated. Heat maps were generated using Rq values of TLDA array data exported from the Relative Quantification Application of the ThermoFisher Cloud software (ThermoFisher; Carlsbad, Calif.) tool. Heat maps of miRNA expression were produced using Hierarchical Clustering Explorer Version 3.5 (at www.cs.umd.edu/hcil/multi-cluster/) produced by the Human Computer Interaction Laboratory (University of Maryland; College Park, Md.).
# To examine miRNA expression TaqMan low density qPCR array cards were used to profile approximately 750 miRNAs within diaphragm muscle from a discovery set of mice. Samples for this experiment came from a trial that utilized a prophylactic approach (23). Briefly, mdx mice undergo a stage of peak severity characterized by widespread inflammation and necrosis from approximately 3-8 weeks of age, followed by a recovery stage where mice show milder phenotypes (25). […]
compound,measurement,value
C[C@@H]1C[C@H]2[C@@H]3CCC4=CC(=O)C=C[C@]4(C)C3=CC[C@]2(C)[C@@]1(O)C(=O)CO [vamorolone],Rq mmu-miR-215-001200,0.495
same,Rq mmu-miR-218-000521,0.759
same,Rq mmu-miR-221-000524,0.674
same,Rq mmu-miR-222-002276,0.733
same,Rq mmu-miR-223-002295,0.78
same,Rq mmu-miR-296-5p-000527,0.882
same,Rq mmu-miR-301a-000528,0.77
same,Rq mmu-miR-301b-002600,0.917
same,Rq mmu-miR-322-001076,0.785
same,Rq mmu-miR-324-3p-002509,0.748
same,Rq mmu-miR-324-5p-000539,0.946
same,Rq mmu-miR-328-000543,0.858
same,Rq mmu-miR-335-3p-002185,1.249
same,Rq mmu-miR-335-5p-000546,0.76
same,Rq mmu-miR-337-3p-002532,1.078
same,Rq mmu-miR-338-3p-002252,0.689
same,Rq mmu-miR-339-5p-002257,0.929
same,Rq mmu-miR-340-3p-002259,0.75
same,Rq mmu-miR-340-5p-002258,0.726
same,Rq mmu-miR-342-3p-002260,0.677
same,Rq mmu-miR-342-5p-002527,0.644
same,Rq mmu-miR-345-5p-002528,0.808
same,Rq mmu-miR-350-002530,0.797
same,Rq mmu-miR-362-3p-002616,0.902
same,Rq mmu-miR-362-5p-002614,1.469
same,Rq mmu-miR-369-3p-000557,0.963
same,Rq mmu-miR-369-5p-001021,1.023
same,Rq mmu-miR-370-002275,1.146
same,Rq mmu-miR-376a#-002482,0.985
same,Rq mmu-miR-376a-001069,0.991
same,Rq mmu-miR-376b#-002451,0.717
same,Rq mmu-miR-376b-002452,1.153
same,Rq mmu-miR-376c-002450,0.931
same,Rq mmu-miR-379-001138,0.987
same,Rq mmu-miR-380-5p-002601,1.243
same,Rq mmu-miR-381-000571,1.288
same,Rq mmu-miR-382-000572,1.081
same,Rq mmu-miR-383-001767,0.272
same,Rq mmu-miR-384-5p-002602,0.727
same,Rq mmu-miR-409-3p-002332,1.266
same,Rq mmu-miR-410-001274,1.158
same,Rq mmu-miR-411-001610,1.083
same,Rq mmu-miR-431-001979,1.358
same,Rq mmu-miR-433-001028,1.407
same,Rq mmu-miR-434-5p-002581,1.208
same,Rq mmu-miR-450a-5p-002303,0.862
same,Rq mmu-miR-455-002455,0.607
same,Rq mmu-miR-467F-002886,0.581
same,Rq mmu-miR-467a-002587,0.763
same,Rq mmu-miR-467c-002517,0.844
same,Rq mmu-miR-483#-002560,1.386
same,Rq mmu-miR-486-001278,0.988
same,Rq mmu-miR-487b-001285,1.133
same,Rq mmu-miR-489-001302,0.942
same,Rq mmu-miR-491-001630,0.842
same,Rq mmu-miR-493-002519,1.057
same,Rq mmu-miR-494-002365,0.988
same,Rq mmu-miR-495-001663,0.897
same,Rq mmu-miR-497-001346,0.652
same,Rq mmu-miR-500-002606,0.878
same,Rq mmu-miR-501-3p-001651,1.158
same,Rq mmu-miR-503-002456,1.115
same,Rq mmu-miR-511-002549,0.477
same,Rq mmu-miR-532-3p-002355,1.069
same,Rq mmu-miR-532-5p-001518,1.043
same,Rq mmu-miR-540-3p-001310,0.746
same,Rq mmu-miR-541-002562,1.043
same,Rq mmu-miR-542-3p-001284,0.82
same,Rq mmu-miR-542-5p-002563,1.044
same,Rq mmu-miR-543-001298,1.176
same,Rq mmu-miR-543-002376,0.918
same,Rq mmu-miR-544-002550,0.952
same,Rq mmu-miR-574-3p-002349,0.692
same,Rq mmu-miR-652-002352,0.636
same,Rq mmu-miR-665-002607,1.203
same,Rq mmu-miR-669a-001683,0.551
same,Rq mmu-miR-673-3p-002449,1.148
same,Rq mmu-miR-673-001954,1.475
same,Rq mmu-miR-674#-001956,0.765
same,Rq mmu-miR-674-002021,0.892
same,Rq mmu-miR-675-3p-001941,1.14
same,Rq mmu-miR-682-001666,0.675
same,Rq mmu-miR-690-001677,0.861
same,Rq mmu-miR-706-001641,0.664
same,Rq mmu-miR-708-002341,0.51
same,Rq mmu-miR-720-001629,0.957
same,Rq mmu-miR-802-002029,0.126
same,Rq mmu-miR-805-002045,1.128
same,Rq mmu-miR-1274a-121150_mat,1.244
same,Rq mmu-miR-1941-3p-121130_mat,1.459
same,Rq mmu-miR-1943-121174_mat,1.268
same,Rq mmu-miR-1944-121189_mat,1.023
same,Rq mmu-miR-2146-241082_mat,0.413
same,Rq mmu-miR-30d-000420,0.829
same,Rq rno-miR-1-002064,0.956
same,Rq rno-miR-7#-001338,0.799
same,Rq rno-miR-7a#-002062,0.887
same,Rq rno-miR-20b-001326,0.711
same,Rq rno-miR-29c#-001818,0.93
same,Rq rno-miR-204#-002076,0.813
same,Rq rno-miR-224-000599,0.837
same,Rq rno-miR-345-3p-002061,0.999
same,Rq rno-miR-351-002063,1.376
same,Rq rno-miR-379#-002081,1.014
same,Rq rno-miR-381-001322,1.013
same,Rq rno-miR-489-001353,0.844
same,Rq rno-miR-664-001323,0.771
